Laboratory results taken from US20260152487A1 (Sitryx Therapeutics Limited, priority 2021, published 2026).

Target: T1, recombinant human PKM2 (Homo sapiens, UniProt P14618)
T1 construct: His (N); purchased R&D Systems
Test: Human PKM2 activation assay (Kinase-Glo Plus luminescent detection of generated ATP)
Type: biochemical
Details: for Emax: percentage activation normalised to DMSO vehicle (LOW) and 5 μM TEPP-46 (HIGH), read-out: hPKM2 Emax; for EC50: recombinant human PKM2 activation, 4-parameter logistic fit, read-out: hPKM2 EC50
Protocol: Compound activation of recombinant human PKM2 pyruvate kinase activity was determined by biochemical assay. N-terminal His-tagged hPKM2 was sourced from R&D Systems and its substrates phosphoenolpyruvate (PEP) and ADP from Sigma-Aldrich and 2Bscientific Ltd, respectively. The Kinase-Glo® Plus luminescence assay was from Promega. All other reagents were from Sigma-Aldrich. Test Compounds were prepared as 10 mM DMSO stocks and dilution series prepared in DMSO for direct dilution into Assay Buffer comprising 50 mM imidazole, 50 mM KCl, 7 mM MgCl2, 0.01% Tween20, 0.05% BSA (pH 7.2).
Human PKM2 was diluted into Assay Buffer comprising 50 mM imidazole, 50 mM KCl, 7 mM MgCl2, 0.01% Tween20, 0.05% BSA (pH 7.2) to a final concentration of […]. Enzyme-Assay Buffer mix was dispensed into a 384-well shallow-well white-walled plate (PerkinElmer) and Test Compounds added by acoustic dispense (Echo®, Labcyte Inc.).
After 60 minutes' incubation on an orbital shaker (300 rpm, 26° C.), enzyme activity was quantified by the luminescent detection of generated ATP. Kinase-Glo® Plus reagent was added to each well and the plates incubated for a further 15 minutes on an orbital shaker in the dark (300 rpm, 26° C.) before luminescence measurement on a plate reader (PHERAstar® FSX, BMG Labtech).
Percentage activation was calculated by normalising […] signals to plate LOW (DMSO vehicle) and HIGH (5 μM TEPP-46) controls. EC50 and Emax values were determined from 4-parameter logistic fits of compound concentration-response curves.

T1 sequence (P14618 2-531 limits assumed): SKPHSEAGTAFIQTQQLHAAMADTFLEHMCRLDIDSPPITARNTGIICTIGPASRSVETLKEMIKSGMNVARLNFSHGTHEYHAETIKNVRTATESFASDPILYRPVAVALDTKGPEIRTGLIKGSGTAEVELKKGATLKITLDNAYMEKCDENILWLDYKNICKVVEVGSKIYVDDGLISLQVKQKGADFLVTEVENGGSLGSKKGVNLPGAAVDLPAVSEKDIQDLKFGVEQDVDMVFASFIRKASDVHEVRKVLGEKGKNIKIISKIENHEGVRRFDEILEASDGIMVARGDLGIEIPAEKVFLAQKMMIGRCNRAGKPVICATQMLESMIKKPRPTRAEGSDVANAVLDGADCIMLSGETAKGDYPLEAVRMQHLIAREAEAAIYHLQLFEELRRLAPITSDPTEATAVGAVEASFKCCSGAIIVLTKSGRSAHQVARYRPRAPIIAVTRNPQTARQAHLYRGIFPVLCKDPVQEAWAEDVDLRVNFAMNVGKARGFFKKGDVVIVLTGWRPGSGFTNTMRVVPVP

| SMILES | Emax [%] | EC50 [nM] |
| --- | --- | --- |
| O=c1c2ccc(S(=O)(=O)c3ccccc3)cc2cnn1Cc1ccsc1CO [Example 22, 2-((2-(hydroxymethyl)thiophen-3-yl)methyl)-6-(phenylsulfonyl)phthalazin-1(2H)-one] | 86.1 | 102 |
| Cn1cc(S(=O)(=O)c2ccc3c(=O)n(Cc4cccnc4O)ncc3c2)cn1 [Example 200, 2-((2-hydroxypyridin-3-yl)methyl)-6-((1-methyl-1H-pyrazol-4-yl)sulfonyl)phthalazin-1(2H)-one] | 80.2 | 621 |
| COc1ccc(Cn2ncc3cc(S(=O)(=O)c4cccc(OC(F)F)c4)ccc3c2=O)cn1 [Example 170, 6-(3-(difluoromethoxy)phenylsulfonyl)-2-((6-methoxypyridin-3-yl)methyl)phthalazin-1(2H)-one] | 101 | 82 |
| Cc1cc(Cn2ncc3cc(S(=O)(=O)c4ccccc4)ccc3c2=O)sn1 [Example 97, 2-((3-methylisothiazol-5-yl)methyl)-6-(phenylsulfonyl)phthalazin-1(2H)-one] | 99.1 | 715 |
| COc1ccc(Cn2ncc3cc(S(=O)(=O)c4csc(C(N)=O)c4)ccc3c2=O)cn1 [Example 118, 4-(2-((6-methoxypyridin-3-yl)methyl)-1-oxo-1,2-dihydrophthalazin-6-ylsulfonyl)thiophene-2-carboxamide] | 93.2 | 60.2 |
| Cc1ccc(S(=O)(=O)c2ccc3c(=O)n(Cc4cc[nH]n4)ncc3c2)nc1 [Example 289, 2-((1H-pyrazol-3-yl)methyl)-6-((5-methylpyridin-2-yl)sulfonyl)phthalazin-1(2H)-one] | 91.8 | 319 |
| Cc1c[nH]nc1Cn1ncc2cc(S(=O)(=O)c3ccc4c(c3)CCO4)ccc2c1=O [Example 208, 6-((2,3-dihydrobenzofuran-5-yl)sulfonyl)-2-((4-methyl-1H-pyrazol-3-yl)methyl)phthalazin-1(2H)-one] | 104 | 33.3 |
| Cc1cccc(Cn2ncc3cc(S(=O)(=O)c4cnn(CCN)c4)ccc3c2=O)n1 [Example 277, 6-((1-(2-aminoethyl)-1H-pyrazol-4-yl)sulfonyl)-2-((6-methylpyridin-2-yl)methyl)phthalazin-1(2H)-one] | 105 | 304 |
| Cn1cc(S(=O)(=O)c2cc3cnn(Cc4cc[nH]n4)c(=O)c3cn2)cn1 [Example 266, 3-((1H-pyrazol-3-yl)methyl)-7-((1-methyl-1H-pyrazol-4-yl)sulfonyl)pyrido[3,4-d]pyridazin-4(3H)-one] | 92.3 | 191 |
| Nc1cccc(Cn2ncc3cc([S+]([O-])c4ccccc4)ccc3c2=O)c1 (centres unmarked) [Example 119, 2-(3-aminobenzyl)-6-(phenylsulfinyl)phthalazin-1(2H)-one] | 98.8 | 348 |
| NC(=O)c1nc(Cn2ncc3cc(S(=O)(=O)c4ccccc4)ccc3c2=O)cs1 [Example 93, 4-((1-oxo-6-(phenylsulfonyl)phthalazin-2(1H)-yl)methyl)thiazole-2-carboxamide] | 108 | 411 |
| COC(C)c1nc(S(=O)(=O)c2ccc3c(=O)n(Cc4nc(C)c(C)cc4F)ncc3c2)cs1 (centres unmarked) [Example 353] | 105 | 98.8 |
| COC(C)c1nc(S(=O)(=O)c2ccc3c(=O)n(Cc4cc[nH]n4)ncc3c2)cs1 (centres unmarked) [Example 351] | 103 | 93.9 |
| Cc1cn(CCO)nc1Cn1ncc2cc(S(=O)(=O)c3ccccc3)ccc2c1=O [Example 16, 2-((1-(2-hydroxyethyl)-4-methyl-1H-pyrazol-3-yl)methyl)-6-(phenylsulfonyl)phthalazin-1(2H)-one] | 92.6 | 154 |
| N=[S@](=O)(c1cn[nH]c1)c1ccc2c(=O)n(Cc3ccc4c(n3)CCO4)ncc2c1 (stereo in doubt) [Example 363] | 105 | 128 |
| COc1ccc(Cn2ncc3cc(S(=O)(=O)c4cc[nH]n4)ccc3c2=O)cn1 [Example 140, 6-((1H-pyrazol-3-yl)sulfonyl)-2-((6-methoxypyridin-3-yl)methyl)phthalazin-1(2H)-one] | 107 | 192 |
| COc1ccc(S(=O)(=O)c2ccc3c(=O)n(Cc4cccc(N)c4)ncc3c2)cn1 [Example 149, 2-(3-aminobenzyl)-6-((6-methoxypyridin-3-yl)sulfonyl)phthalazin-1(2H)-one] | 100 | 54.6 |

| SMILES | Emax [%] | EC50 [nM] |
| --- | --- | --- |
| COc1ccc(Cn2ncc3cc(S(=N)(=O)c4ccccc4)ccc3c2=O)cn1 (racemic) [Example 131, 2-((6-methoxypyridin-3-yl)methyl)-6-(phenylsulfonimidoyl)phthalazin-1(2H)-one] | 99.7 | 300 |
| COc1ccc(S(=O)(=O)c2ccc3c(=O)n(Cc4ccn(CCO)n4)ncc3c2)cn1 [Example 285, 2-((1-(2-hydroxyethyl)-1H-pyrazol-3-yl)methyl)-6-((6-methoxypyridin-3-yl)sulfonyl)phthalazin-1(2H)-one] | 98.4 | 217 |
| O=c1c2ccc(S(=O)(=O)c3cc4c(cn3)OCCO4)cc2cnn1Cc1cc[nH]n1 [Example 230, 2-((1H-pyrazol-3-yl)methyl)-6-((2,3-dihydro-[1,4]dioxino[2,3-c]pyridin-7-yl)sulfonyl)phthalazin-1(2H)-one] | 118 | 183 |
| COc1ccc(Cn2ncc3cc(S(=O)(=O)c4ccccc4OC)ccc3c2=O)cn1 [Example 164, 6-(2-methoxyphenylsulfonyl)-2-((6-methoxypyridin-3-yl)methyl)phthalazin-1(2H)-one] | 107 | 146 |
| C[C@H](O)c1cccc(Cn2ncc3cc(S(=O)(=O)c4cnn(C)c4)ccc3c2=O)n1 (single isomer, unassigned) [Example 278] | 78.6 | 434 |
| COc1cccc(S(=O)(=O)c2ccc3c(=O)n(Cc4cc[nH]n4)ncc3c2)n1 [Example 286, 2-((1H-pyrazol-3-yl)methyl)-6-((6-methoxypyridin-2-yl)sulfonyl)phthalazin-1(2H)-one] | 105 | 246 |
| O=c1c2ccc(S(=O)(=O)c3cnn(CCO)c3)cc2cnn1Cc1cccc(C2CC2)n1 [Example 307] | 94.6 | 72.8 |
| Cc1[nH]nc(Cn2ncc3cc(S(=O)(=O)c4cnn(C(F)F)c4)ccc3c2=O)c1Cl [Example 349] | 92.5 | 45.3 |
| COc1ccc(S(=O)(=O)c2ccc3c(=O)n(Cc4cc[nH]n4)ncc3c2)cn1 [Example 235, 2-((1H-pyrazol-3-yl)methyl)-6-((6-methoxypyridin-3-yl)sulfonyl)phthalazin-1(2H)-one] | 114 | 56.6 |
| Cn1cc(S(=O)(=O)c2ccc3c(=O)n(Cc4cccc(C5(O)COC5)n4)ncc3c2)cn1 [Example 283, 2-((6-(3-hydroxyoxetan-3-yl)pyridin-2-yl)methyl)-6-((1-methyl-1H-pyrazol-4-yl)sulfonyl)phthalazin-1(2H)-one] | 78.6 | 441 |
| C[C@@H]1Cc2cc(S(=O)(=O)c3ccc4c(=O)n(Cc5ccn(C)n5)ncc4c3)ccc2O1 [Example 217, (R)-2-((1-methyl-1H-pyrazol-3-yl)methyl)-6-((2-methyl-2,3-dihydrobenzofuran-5-yl)sulfonyl)phthalazin-1(2H)-one] | 115 | 60.2 |
| COc1ccc(F)c(Cn2ncc3cc(S(=O)(=O)c4cn[nH]c4)ccc3c2=O)n1 [Example 326] | 106 | 174 |
| O=c1c2ccc(S(=O)(=O)c3ccn(CCO)n3)cc2cnn1Cc1cccnc1O [Example 237, 6-(1-(2-hydroxyethyl)-1H-pyrazol-3-ylsulfonyl)-2-((2-hydroxypyridin-3-yl)methyl)phthalazin-1(2H)-one] | 80.7 | 582 |
| Cn1ccc(Cn2ncc3cc(S(=O)(=O)c4ccccc4)cc(F)c3c2=O)n1 [Example 245, 8-fluoro-2-((1-methyl-1H-pyrazol-3-yl)methyl)-6-(phenylsulfonyl)phthalazin-1(2H)-one] | 103 | 54.2 |
| COc1ccc(Cn2ncc3cc(S(=N)(=O)c4ccc(OC(F)F)cc4)ccc3c2=O)cn1 (racemic) [Example 134, 6-(4-(difluoromethoxy)phenylsulfonimidoyl)-2-((6-methoxypyridin-3-yl)methyl)phthalazin-1(2H)-one] | 102 | 88.1 |
| COc1ccc(Cn2ncc3cc(S(=O)(=O)c4ccc(C)cn4)ccc3c2=O)cn1 [Example 115, 2-((6-methoxypyridin-3-yl)methyl)-6-(5-methylpyridin-2-ylsulfonyl)phthalazin-1(2H)-one] | 69.8 | 276 |
| O=c1c2ccc(S(=O)(=O)c3cccnc3)cc2cnn1Cc1cc[nH]n1 [Example 233, 2-((1H-pyrazol-3-yl)methyl)-6-(pyridin-3-ylsulfonyl)phthalazin-1(2H)-one] | 126 | 489 |
